The values that follow come from patent publication US20240109865A1, “INDAZOLE COMPOUNDS AS KINASE INHIBITORS” (TYRA BIOSCIENCES, INC., priority 2020, published 2024).

One assay addresses FGFR1-BCR Ba/F3 cells (Homo sapiens, UniProt P11362). Description: Ba/F3 cell viability assay (CellTiter-Glo 2.0), FGFR1-BCR Ba/F3. In kind it is cell-based. Particulars: read-out: Ba/F3 Cells FGFR1 (IC50 nM), 48 hours, Cell Titer Glo 2.0. The text has this: (§1) Experimental Purpose: Recombinant kinase fusions are transduced into parental Ba/F3, which becomes dependent upon this constitutive kinase activity for IL3-independent survival. Inhibition of kinase activity leads to cell death, which is monitored using CellTiter-Glo® 2.0 (Promega) which measures intracellular ATP concentration that in turn serves as a marker for viability. FGFR1-BCR Ba/F3 and FGFR3-BAIAP2L1 Ba/F3 were obtained from Advanced Cellular Dynamics (Seattle, WA)
(§2) Cell Viability Assay Procedure: Cell Titer-Glo® 2.0 Luminescent cell viability assay reagent was purchased from Promega (Madison, WI). FGFR1-BCR Ba/F3 and FGFR3-BAIAP2L1 Ba/F3 cells were cultured in RPMI1640 media supplemented with 10% fetal bovine serum. Cultures were maintained at 37° C. in a humidified atmosphere of 5% C02 and 95% air.
(§3) Cells were plated in 96-well clear bottom/white plates (Corning #3903) at 10,000 cells/well in 100 μl of media, incubated overnight. The next day, test compound DMSO stock solutions were made at 10 mM and 2 μM final concentration. Compounds were then added to cells in a 9-dose, 10-fold dilution series starting at 30 μM with an HP 300e Digital Dispenser (each dose was applied in triplicate). DMSO was backfilled to each well up to 301 nL total volume of test compound+DMSO, and a total of 301 nL DMSO was added to a control/no test compound well in triplicate. The cells in cell culture plates were incubated with the compounds at 37° C. and 5% C02 for 48 hours. Then 50 μl of Cell Titer Glo 2.0 reagent was added to each well of the cell culture plates. The contents were covered from light and mixed on an orbital shaker at room temperature for 10 min. Luminescence was recorded by a Synergy H1 Microplate Reader (Biotek, Winooski, VT). Cells were assessed as a percentage of DMSO only treated control cells. Curves were plotted and IC50 values were calculated using the GraphPad Prism 8 program based on a sigmoidal dose-response equation (4 parameter).

The target of another assay is FGFR2 (Homo sapiens (Human), UniProt P21802). Description: Kinase assay, binding constants (Kd), kinase-tagged T7 phage, qPCR. The method in brief:
(§4)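 Using T7 phage lysates from BL21-derived E. coli, compounds at 0.9% final DMSO competed for kinase binding to ligand-bearing magnetic beads. After elution, qPCR measured remaining kinase, and Kds were fitted by non-linear least squares with the Hill slope fixed at −1.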

A further assay concerns the target FGFR3 (V555M) (Homo sapiens (Human), UniProt P22607, V555M). The assay is described as above. To be noted: V555M mutant. The method in brief: as §4
For the next assay, the target named is FGFR1 (Homo sapiens (Human), UniProt P11362). The assay is described as above. In a few lines: as §4
The target of a further assay is FGFR4 (Homo sapiens (Human), UniProt P22455). The assay is described as above. In a few lines: as §4
The next assay addresses FGFR3 (Homo sapiens (Human), UniProt P22607). Described as above. In a few lines:
as §4

Assay [1] deals with FGFR3-BAIAP2L1 Ba/F3 cells (Homo sapiens, UniProt P22607). Description: Ba/F3 cell viability assay (CellTiter-Glo 2.0), FGFR3-BAIAP2L1 Ba/F3. The format is cell-based. To be noted: for Ba/F3 FGFR1/FGFR3 Selectivity: FGFR3 > FGFR1 selectivity ratio in Ba/F3 FGFR fusion cell based assays; for IC50: read-out: Ba/F3 Cells FGFR3 (IC50 nM), FGFR3-BAIAP2L1 Ba/F3 cells, 48 hours, Cell Titer Glo 2.0.
Text: as §1, §2, §3

Molecules are shown by their SMILES.

FGFR3 (V555M), sequence (P22607 23-806 V555M): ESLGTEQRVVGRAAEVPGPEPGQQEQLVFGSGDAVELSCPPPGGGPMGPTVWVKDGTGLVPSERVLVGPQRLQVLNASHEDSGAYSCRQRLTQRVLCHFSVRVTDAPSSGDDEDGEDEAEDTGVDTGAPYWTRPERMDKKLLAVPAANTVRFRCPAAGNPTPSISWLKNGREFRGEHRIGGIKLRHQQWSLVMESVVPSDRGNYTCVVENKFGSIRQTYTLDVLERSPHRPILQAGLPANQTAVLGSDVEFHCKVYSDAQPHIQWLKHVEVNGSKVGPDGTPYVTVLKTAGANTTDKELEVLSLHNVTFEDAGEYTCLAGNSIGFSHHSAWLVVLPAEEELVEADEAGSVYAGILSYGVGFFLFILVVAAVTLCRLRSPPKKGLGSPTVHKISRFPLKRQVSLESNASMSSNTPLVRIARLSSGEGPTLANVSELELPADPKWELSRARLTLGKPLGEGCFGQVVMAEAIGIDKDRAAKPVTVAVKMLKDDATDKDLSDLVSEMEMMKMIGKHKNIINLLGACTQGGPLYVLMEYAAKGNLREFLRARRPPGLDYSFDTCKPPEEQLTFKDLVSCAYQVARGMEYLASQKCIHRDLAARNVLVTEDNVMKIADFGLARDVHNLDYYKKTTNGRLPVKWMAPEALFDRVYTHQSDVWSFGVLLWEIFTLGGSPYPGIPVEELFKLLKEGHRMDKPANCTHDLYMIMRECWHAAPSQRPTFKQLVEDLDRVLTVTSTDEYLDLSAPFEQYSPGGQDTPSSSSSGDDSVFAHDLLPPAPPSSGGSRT
FGFR3-BAIAP2L1 Ba/F3 cells, sequence (P22607 23-806 limits assumed, change not shown): as the sequence (P22607 23-806 V555M) above, with M533V counted along it
FGFR3, sequence (P22607 23-806): as the sequence (P22607 23-806 V555M) above, with M533V counted along it
FGFR1, sequence (P11362 22-822): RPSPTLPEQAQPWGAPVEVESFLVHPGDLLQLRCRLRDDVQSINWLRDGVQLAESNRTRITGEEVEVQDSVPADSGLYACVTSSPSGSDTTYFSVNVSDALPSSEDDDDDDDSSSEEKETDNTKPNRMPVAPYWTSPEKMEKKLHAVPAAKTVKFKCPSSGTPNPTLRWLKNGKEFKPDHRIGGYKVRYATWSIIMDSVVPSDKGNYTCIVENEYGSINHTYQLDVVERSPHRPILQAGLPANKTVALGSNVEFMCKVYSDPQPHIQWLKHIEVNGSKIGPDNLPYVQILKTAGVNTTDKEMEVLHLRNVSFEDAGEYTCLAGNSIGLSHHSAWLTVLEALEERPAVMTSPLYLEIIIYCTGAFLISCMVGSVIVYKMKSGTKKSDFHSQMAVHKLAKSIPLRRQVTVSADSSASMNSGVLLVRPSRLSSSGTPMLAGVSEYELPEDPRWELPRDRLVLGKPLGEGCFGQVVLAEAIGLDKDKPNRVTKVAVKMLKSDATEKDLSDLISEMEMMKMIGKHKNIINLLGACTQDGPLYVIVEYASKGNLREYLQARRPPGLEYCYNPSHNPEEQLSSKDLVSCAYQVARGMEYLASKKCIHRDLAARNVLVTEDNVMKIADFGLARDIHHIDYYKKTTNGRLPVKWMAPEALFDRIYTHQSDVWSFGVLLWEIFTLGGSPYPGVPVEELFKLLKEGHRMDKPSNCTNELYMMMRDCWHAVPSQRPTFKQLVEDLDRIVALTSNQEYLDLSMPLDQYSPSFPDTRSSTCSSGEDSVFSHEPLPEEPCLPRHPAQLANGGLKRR
FGFR1-BCR Ba/F3 cells, sequence (P11362 22-822 limits assumed, change not shown): as the sequence (P11362 22-822) above
FGFR4, sequence (P22455 22-802): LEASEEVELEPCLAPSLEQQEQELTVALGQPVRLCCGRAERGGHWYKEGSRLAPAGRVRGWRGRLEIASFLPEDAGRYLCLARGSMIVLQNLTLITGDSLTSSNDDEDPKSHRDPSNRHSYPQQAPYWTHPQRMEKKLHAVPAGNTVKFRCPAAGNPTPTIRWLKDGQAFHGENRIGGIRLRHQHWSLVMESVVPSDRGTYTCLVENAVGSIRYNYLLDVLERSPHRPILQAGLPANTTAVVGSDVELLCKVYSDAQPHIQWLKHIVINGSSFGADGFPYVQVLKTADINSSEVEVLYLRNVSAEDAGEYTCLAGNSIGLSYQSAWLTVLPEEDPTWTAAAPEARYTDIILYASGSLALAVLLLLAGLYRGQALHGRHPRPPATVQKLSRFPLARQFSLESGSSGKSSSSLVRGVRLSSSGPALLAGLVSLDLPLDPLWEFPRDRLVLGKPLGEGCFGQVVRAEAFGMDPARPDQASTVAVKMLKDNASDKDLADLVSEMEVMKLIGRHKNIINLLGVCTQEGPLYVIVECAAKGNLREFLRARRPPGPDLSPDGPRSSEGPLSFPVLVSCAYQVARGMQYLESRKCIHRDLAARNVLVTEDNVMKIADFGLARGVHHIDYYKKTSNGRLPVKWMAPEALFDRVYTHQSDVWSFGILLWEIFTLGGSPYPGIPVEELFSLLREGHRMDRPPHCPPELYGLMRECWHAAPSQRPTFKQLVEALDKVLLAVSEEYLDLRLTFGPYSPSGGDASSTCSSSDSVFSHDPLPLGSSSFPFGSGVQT
FGFR2, sequence (P21802 22-821): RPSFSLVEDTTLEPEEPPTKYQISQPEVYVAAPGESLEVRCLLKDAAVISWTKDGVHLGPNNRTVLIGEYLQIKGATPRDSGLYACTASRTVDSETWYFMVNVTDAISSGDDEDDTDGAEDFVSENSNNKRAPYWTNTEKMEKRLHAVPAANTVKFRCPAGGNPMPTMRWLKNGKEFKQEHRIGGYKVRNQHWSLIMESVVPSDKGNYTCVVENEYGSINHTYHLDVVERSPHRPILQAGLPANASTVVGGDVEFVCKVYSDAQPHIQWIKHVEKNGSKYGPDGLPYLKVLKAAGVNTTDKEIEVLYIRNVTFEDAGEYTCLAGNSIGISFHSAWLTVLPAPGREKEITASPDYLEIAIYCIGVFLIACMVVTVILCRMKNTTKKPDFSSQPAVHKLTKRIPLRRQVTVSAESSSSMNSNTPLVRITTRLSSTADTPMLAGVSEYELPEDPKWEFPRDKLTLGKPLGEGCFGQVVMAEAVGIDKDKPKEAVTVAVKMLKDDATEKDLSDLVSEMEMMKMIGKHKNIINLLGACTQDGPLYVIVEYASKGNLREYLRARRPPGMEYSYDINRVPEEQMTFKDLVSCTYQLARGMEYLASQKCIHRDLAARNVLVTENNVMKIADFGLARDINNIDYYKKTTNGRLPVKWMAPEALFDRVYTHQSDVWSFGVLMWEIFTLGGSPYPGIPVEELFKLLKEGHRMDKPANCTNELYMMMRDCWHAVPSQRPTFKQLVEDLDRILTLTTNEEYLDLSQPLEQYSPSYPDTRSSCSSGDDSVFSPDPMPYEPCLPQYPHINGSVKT

Consider `C[C@@H](Oc1ccc2[nH]nc(-c3cnc(N4CCC5(CCCN5)CC4)nc3)c2c1)c1c(Cl)cncc1Cl` [Example 56, 8-[5-[5-[(1R)-1-(3,5-dichloro-4-pyridyl)ethoxy]-1H-indazol-3-yl]pyrimidin-2-yl]-1,8-diazaspiro[4.5]decane], for which the IC50 is more than 300 nM at FGFR1-BCR Ba/F3 cells and 20 to 100 nM in assay [1]. Moreover, the Kd lay in the range of 20 to 100 nM at FGFR2; 1 to 20 nM on FGFR3 (V555M); 1 to 20 nM on FGFR1; 1 to 20 nM on FGFR4; 1 to 20 nM on FGFR3. For the same compound, the “Ba/F3 FGFR1/FGFR3 Selectivity” value in assay [1] is 5.
`C[C@@H](Oc1ccc2[nH]nc(-c3cnc(N4CCC5(CC4)CCS(=O)(=O)C5)nc3)c2c1)c1c(Cl)cncc1Cl` [Example 57, 8-[5-[5-[(1R)-1-(3,5-dichloro-4-pyridyl)ethoxy]-1H-indazol-3-yl]pyrimidin-2-yl]-2λ^6-thia-8-azaspiro[4.5]decane 2,2-dioxide]: the IC50 at FGFR1-BCR Ba/F3 cells lay within 100 to 300 nM; in assay [1] it was 1 to 20 nM. The equilibrium dissociation constant (Kd) on FGFR2 was in the range of 20 to 100 nM; on FGFR3 (V555M), 1 to 20 nM; at FGFR1, 20 to 100 nM; at FGFR4 it was 1 to 20 nM; on FGFR3, 1 to 20 nM. For the same compound, the “Ba/F3 FGFR1/FGFR3 Selectivity” value in assay [1] is reported as 15.
Consider `C[C@@H](Oc1ccc2[nH]nc(-c3cnc(N4CCC5(CC4)C(=O)NCCN5C)nc3)c2c1)c1c(Cl)cncc1Cl` [Example 58, 9-[5-[5-[(1R)-1-(3,5-dichloro-4-pyridyl)ethoxy]-1H-indazol-3-yl]pyrimidin-2-yl]-1-methyl-1,4,9-triazaspiro[5.5]undecan-5-one], for which the IC50 at FGFR1-BCR Ba/F3 cells lay within 100 to 300 nM; in assay [1], 20 to 100 nM. Also, the Kd at FGFR2 is 20 to 100 nM; on FGFR3 (V555M), 1 to 20 nM; on FGFR1, 20 to 100 nM; on FGFR4, 1 to 20 nM; at FGFR3 it was 1 to 20 nM. Further, the “Ba/F3 FGFR1/FGFR3 Selectivity” value in assay [1] worked out at 11.
Consider `C[C@@H](Oc1ccc2[nH]nc(-c3cnc(N4CCCN(C(N)=O)CC4)nc3)c2c1)c1c(Cl)cncc1Cl` [Example 62, 4-[5-[5-[(1R)-1-(3,5-Dichloro-4-pyridyl)ethoxy]-1H-indazol-3-yl]pyrimidin-2-yl]-1,4-diazepane-1-carboxamide], for which the IC50 is more than 300 nM on FGFR1-BCR Ba/F3 cells and 20 to 100 nM in assay [1]. For the same compound, the Kd at FGFR2 was in the range of 20 to 100 nM; at FGFR3 (V555M), 1 to 20 nM; on FGFR1, 20 to 100 nM; at FGFR4, 1 to 20 nM; on FGFR3, 1 to 20 nM. In addition, the “Ba/F3 FGFR1/FGFR3 Selectivity” value in assay [1] amounted to 8.
For the compound `C[C@@H](Oc1ccc2[nH]nc(-c3cnc(N4CCCN(S(C)(=O)=O)CC4)nc3)c2c1)c1c(Cl)cncc1Cl` [Example 63, 5-[(1R)-1-(3,5-Dichloro-4-pyridyl)ethoxy]-3-[2-(4-methylsulfonyl-1,4-diazepan-1-yl)pyrimidin-5-yl]-1H-indazole], the IC50 at FGFR1-BCR Ba/F3 cells is more than 300 nM; in assay [1], 20 to 100 nM. Besides, the dissociation constant (Kd) on FGFR2 lay within 20 to 100 nM; on FGFR3 (V555M), 1 to 20 nM; at FGFR1, 20 to 100 nM; at FGFR4 it was 1 to 20 nM; at FGFR3, 1 to 20 nM. Also, in assay [1], the “Ba/F3 FGFR1/FGFR3 Selectivity” value is on record as 16.
On to `C[C@@H](Oc1ccc2[nH]nc(-c3cnn(C4CCNCC4)c3)c2c1)c1c(Cl)cncc1Cl` [Example 64, 5-[(1R)-1-(3,5-dichloro-4-pyridyl)ethoxy]-3-[1-(4-piperidyl)pyrazol-4-yl]-1H-indazole], for which the IC50 lay within 100 to 300 nM at FGFR1-BCR Ba/F3 cells and 1 to 20 nM in assay [1]. Moreover, the Kd at FGFR2, at FGFR3 (V555M), at FGFR1, on FGFR4 and at FGFR3 was 1 to 20 nM throughout. For the same compound, in assay [1], the “Ba/F3 FGFR1/FGFR3 Selectivity” value came out at 16.
In the case of `C[C@@H](Oc1ccc2[nH]nc(-c3cnn(C4CCN(C(=O)N(C)C)CC4)c3)c2c1)c1c(Cl)cncc1Cl` [Example 67, 4-[4-[5-[(1R)-1-(3,5-dichloro-4-pyridyl)ethoxy]-1H-indazol-3-yl]pyrazol-1-yl]-N,N-dimethyl-piperidine-1-carboxamide], the results for the IC50 (on FGFR1-BCR Ba/F3 cells; in assay [1]) were 20 to 100 nM and 1 to 20 nM, respectively. The dissociation constant (Kd) at FGFR2, at FGFR3 (V555M), on FGFR1, at FGFR4 and on FGFR3 was 1 to 20 nM throughout. Also, in assay [1], the “Ba/F3 FGFR1/FGFR3 Selectivity” value worked out at 12.
Regarding `C[C@@H](Oc1ccc2[nH]nc(-c3cnn(C4CCN(C(N)=O)CC4)c3)c2c1)c1c(Cl)cncc1Cl` [Example 68, 4-[4-[5-[(1R)-1-(3,5-dichloro-4-pyridyl)ethoxy]-1H-indazol-3-yl]pyrazol-1-yl]piperidine-1-carboxamide], the IC50 at FGFR1-BCR Ba/F3 cells lay within 100 to 300 nM; in assay [1], 1 to 20 nM. Further, the Kd at FGFR2, on FGFR3 (V555M), on FGFR1, at FGFR4 and at FGFR3 was 1 to 20 nM throughout.
Take `C[C@@H](Oc1ccc2[nH]nc(-c3ccc(C4CCN(S(C)(=O)=O)CC4)nc3)c2c1)c1c(Cl)cncc1Cl` [Example 70, 5-[(1R)-1-(3,5-dichloro-4-pyridyl)ethoxy]-3-[6-(1-methylsulfonyl-4-piperidyl)-3-pyridyl]-1H-indazole]: the IC50 at FGFR1-BCR Ba/F3 cells fell in the range of 20 to 100 nM; in assay [1] it was 1 to 20 nM. Also, the Kd on FGFR2, at FGFR3 (V555M), on FGFR1, on FGFR4 and at FGFR3 was 1 to 20 nM throughout. Further, in assay [1], the “Ba/F3 FGFR1/FGFR3 Selectivity” value stood at 20.
With `C[C@@H](Oc1ccc2[nH]nc(-c3ccc(C4CCN(C(=O)N(C)C)CC4)nc3)c2c1)c1c(Cl)cncc1Cl` [Example 71, 4-[5-[5-[(1R)-1-(3,5-dichloro-4-pyridyl)ethoxy]-1H-indazol-3-yl]-2-pyridyl]-N,N-dimethyl-piperidine-1-carboxamide], the IC50 was 20 to 100 nM on FGFR1-BCR Ba/F3 cells and 1 to 20 nM in assay [1]. For the same compound, the Kd on FGFR2, at FGFR3 (V555M), at FGFR1, at FGFR4 and on FGFR3 was 1 to 20 nM throughout. The “Ba/F3 FGFR1/FGFR3 Selectivity” value in assay [1] worked out at 15.
Consider `C[C@@H](Oc1ccc2[nH]nc(-c3ccc(C4CCN(C(N)=O)CC4)nc3)c2c1)c1c(Cl)cncc1Cl` [Example 72, 4-[5-[5-[(1R)-1-(3,5-dichloro-4-pyridyl)ethoxy]-1H-indazol-3-yl]-2-pyridyl]piperidine-1-carboxamide], for which the IC50 was in the range of 20 to 100 nM on FGFR1-BCR Ba/F3 cells and 1 to 20 nM in assay [1]. In addition, the Kd on FGFR2, on FGFR3 (V555M), at FGFR1, on FGFR4 and at FGFR3 was 1 to 20 nM throughout. Further, in assay [1], the “Ba/F3 FGFR1/FGFR3 Selectivity” value is recorded as 15.
As for `C[C@@H](Oc1ccc2[nH]nc(-c3ccc(N4CC5(CNC5)OC4=O)nc3)c2c1)c1c(Cl)cncc1Cl` [Example 73, 7-[5-[5-[(1R)-1-(3,5-dichloro-4-pyridyl)ethoxy]-1H-indazol-3-yl]-2-pyridyl]-5-oxa-2,7-diazaspiro[3.4]octan-6-one], the values for the IC50 (at FGFR1-BCR Ba/F3 cells; in assay [1]) were 100 to 300 nM and 20 to 100 nM, respectively. Further, the Kd at FGFR2 lay within 20 to 100 nM; on FGFR3 (V555M) it was 1 to 20 nM; at FGFR1, 1 to 20 nM; at FGFR4, 1 to 20 nM; on FGFR3, 1 to 20 nM. For the same compound, in assay [1], the “Ba/F3 FGFR1/FGFR3 Selectivity” value is 11.

As a reminder, the Kd is the free concentration of one partner at which half of the binding sites on the other are occupied at equilibrium, for simple one-to-one binding. A high value points to a looser complex.
